From patent publication US6355615B1, “Desoxycyclodepsipeptides and their use for combatting endoparasites” (Bayer Aktiengesellschaft, priority 1997, dated 2002) come the findings set out here.

The structures appear in SMILES notation.

Tested on in one data set: not given
Experiment: not given
Conditions: not given
Compound `CC(C)C[C@H]1C(=O)O[C@H](Cc2ccc(OCc3ccco3)cc2)C(=O)N(C)[C@@H](CC(C)C)C(=O)O[C@H](C)CN(C)[C@@H](CC(C)C)C(=O)O[C@H](Cc2ccc(OCc3ccco3)cc2)C(=O)N(C)[C@@H](CC(C)C)C(=O)O[C@H](C)CN1C` (stereo in doubt) showed a melting point of 116 to 119 °C.
Same read-out and setting: the same measure for `CC(C)C[C@H]1C(=O)O[C@H](Cc2ccccc2)C(=O)N(C)[C@@H](CC(C)C)C(=O)O[C@H](C)CN(C)[C@@H](CC(C)C)C(=O)O[C@H](Cc2ccccc2)C(=O)N(C)[C@@H](CC(C)C)C(=O)O[C@H](C)CN1C` [Example 1-b, 8,20-dibenzyl-5,11,17,23-tetraisobutyl-2,4,10,14,16,22-hexamethyl-1,7,13,19-tetraoxa-4,10,16,22-tetraaza-cyclotetracosan-6,9,12,18,21,24-hexaone]: 149 to 150 °C.

For the next data set, the system named is Haemonchus contortus. Put plainly: Haemonchus contortus/sheep: nematode egg count in feces before and after oral treatment. The format is in vivo. The note with it: Haemonchus contortus, po, read-out: effective dose (Dosis effectiva). The method, then:
Haemonchus contortus/sheep
Sheep experimentally infected with Haemonchus contortus were treated after expiry of the prepatency time of the parasite.
The active compounds were administered orally in gelatin capsules as pure active ingredient.
The efficacy is determined by quantitatively counting the nematode eggs excreted with the feces before and after treatment.
Complete cessation of oviposition after treatment means that the nematodes have been expelled or are so damaged that they no longer produce eggs (Dosis effectiva).
Take `CC(=O)N1CCN(S(=O)(=O)c2ccc(CC3OC(=O)C(CC(C)C)N(C)CC(C)OC(=O)C(CC(C)C)N(C)C(=O)C(Cc4ccc(S(=O)(=O)O)cc4)OC(=O)C(CC(C)C)N(C)CC(C)OC(=O)C(CC(C)C)N(C)C3=O)cc2)CC1` (centres unmarked) [Example 21-b, 8-[4-(4-acetylpiperazin-1-yl)-sulfonyl-benzyl]-20-(4-sulfobenzyl)-5,11,17,23-tetraisobutyl-2,4,10,14,16,22-hexamethyl-1,7,13,19-tetraoxa-4,10,16,22-tetraaza-cyclotetracosan-6,9,12,18,21,24-hexaone]: the minimal effective dose is 1 mg/kg.
Still for that read-out and setting: the value for `CC(C)C[C@H]1C(=O)O[C@H](Cc2ccc(-n3cccc3)cc2)C(=O)N(C)[C@@H](CC(C)C)C(=O)O[C@H](C)CN(C)[C@@H](CC(C)C)C(=O)O[C@H](Cc2ccc(-n3cccc3)cc2)C(=O)N(C)[C@@H](CC(C)C)C(=O)O[C@H](C)CN1C` [Example 14, 8,20-bis-[4-(1-pyrrolyl)-benzyl]-5,11,17,23-tetraisobutyl-2,4,10,14,16,22-hexamethyl-1,7,13,19-tetraoxa-4,10,16,22-tetraaza-cyclotetracosan-6,9,12,18,21,24-hexaone] was less than 1 mg/kg; that for `CC(C)C[C@H]1C(=O)O[C@H](Cc2ccccc2)CN(C)[C@@H](CC(C)C)C(=O)O[C@H](C)CN(C)[C@@H](CC(C)C)C(=O)O[C@H](Cc2ccccc2)CN(C)[C@@H](CC(C)C)C(=O)O[C@H](C)CN1C` [Example 2, 8,20-dibenzyl-5,11,17,23-tetraisobutyl-2,4,10,14,16,22-hexamethyl-1,7,13,19-tetraoxa-4,10,16,22-tetraazacyclotetracosan-6,12,18,24-tetraone] was less than 1 mg/kg; that for `CC(C)C[C@H]1C(=O)O[C@H](Cc2ccc(NCc3ccco3)cc2)C(=O)N(C)[C@@H](CC(C)C)C(=O)O[C@H](C)CN(C)[C@@H](CC(C)C)C(=O)O[C@H](Cc2ccc(NCc3ccco3)cc2)C(=O)N(C)[C@@H](CC(C)C)C(=O)O[C@H](C)CN1C` [Example 19, 8,20-bis-N-[4-(2-furylmethylanino)benzyl]-5,11,17,23-tetraisobutyl-2,4,10,14,16,22-hexamethyl-1,7,13,19-tetraoxa-4,10,16,22-tetraaza-cyclotetracosan-6,9,12,18,21,24-hexaone] was less than 1 mg/kg.
As to `CC(C)C[C@H]1C(=O)O[C@H](Cc2ccc(N3CCOCC3)cc2)C(=O)N(C)[C@@H](CC(C)C)C(=O)O[C@H](C)CN(C)[C@@H](CC(C)C)C(=O)O[C@H](Cc2ccccc2N2CCOCC2)C(=O)N(C)[C@@H](CC(C)C)C(=O)O[C@H](C)CN1C` [Example 6, 5,11,17,23-tetraisobutyl-2,4,10,14,16,22-hexamethyl-8-[-4-(N-morpholinyl)benzyl]-20-[2-(N-morpholinyl)benzyl]-1,7,13,19-tetraoxa-4,10,16,22-tetraaza-cyclotetracosan-6,9,12,18,21,24-hexaone], the minimal effective dose is less than 1 mg/kg.
The same measure, in the same setting: the same measure for `CC(C)C[C@H]1C(=O)O[C@H](Cc2ccccc2)C(=O)N(C)[C@@H](CC(C)C)C(=O)O[C@H](C)CN(C)[C@@H](CC(C)C)C(=O)O[C@H](Cc2ccccc2)C(=O)N(C)[C@@H](CC(C)C)C(=O)O[C@H](C)CN1C` [Example 1-b, 8,20-dibenzyl-5,11,17,23-tetraisobutyl-2,4,10,14,16,22-hexamethyl-1,7,13,19-tetraoxa-4,10,16,22-tetraaza-cyclotetracosan-6,9,12,18,21,24-hexaone]: less than 1 mg/kg; for `COCCN(CCOC)c1ccc(CC2OC(=O)C(CC(C)C)N(C)CC(C)OC(=O)C(CC(C)C)N(C)C(=O)C(Cc3ccc(N(CCOC)CCOC)cc3)OC(=O)C(CC(C)C)N(C)CC(C)OC(=O)C(CC(C)C)N(C)C2=O)cc1` (stereo not drawn) [Example 16-c, 8,20-bis-[4-bis-(β-methoxyethyl)aminobenzyl)-5,11,17,23-tetraisobutyl-2,4,10,14,16,22-hexamethyl-1,7,13,19-tetraoxa-4,10,16,22-tetraazacyclotetracosan-6,9,12,18,21,24-hexaone]: less than 1 mg/kg.

The data set is the same for the next values; noted with them: sheep experimentally infected with Haemonchus contortus; oral, gelatin capsules, pure active ingredient; complete cessation of oviposition after treatment.
In the case of `COCCNc1ccc(CC2OC(=O)C(CC(C)C)N(C)C(=O)C(C)OC(=O)C(CC(C)C)N(C)C(=O)C(Cc3ccc(N(CCOC)CCOC)cc3)OC(=O)C(CC(C)C)N(C)CC(C)OC(=O)C(CC(C)C)N(C)C2=O)cc1` (stereo not drawn) [Example 17-a, 8(or 20)-[4-bis-(β-methoxyethyl)aminobenzyl]-20(or 8)-(4-β-methoxyethylaminobenzyl)-5,11,17,23-tetraisobutyl-2,4,10,14,16,22-hexamethyl-1,7,13,19-tetraoxa-4,10,16,22-tetraaza-cyclotetracosan-6,9,12,15,18,21,24-heptaone], the “effective dose (Dosis effectiva)” value is less than 1 mg/kg.

Still in this data set, the particulars now being: sheep experimentally infected with Haemonchus contortus; oral, gelatin capsules, pure active ingredient; complete cessation of oviposition after treatment; read-out: effective dose (Dosis effectiva).
Turning to `CC(C)CC1C(=O)OC(C)CN(C)C(CC(C)C)C(=O)OC(Cc2ccc(N3CCOCC3)cc2)CN(C)C(CC(C)C)C(=O)OC(C)CN(C)C(CC(C)C)C(=O)OC(Cc2ccc(N3CCOCC3)cc2)CN1C` (centres unmarked) [Example 7-d, 5,11,17,23-tetraisobutyl-2,4,10,14,16,22-hexamethyl-8,20-bis-[4-(N-morpholinyl)benzyl]-1,7,13,19-tetraoxa-4,10,16,22-tetraaza-cyclotetracosan-6,12,18,24-tetraone], the minimal effective dose is less than 1 mg/kg.
For `COCCNc1ccc(CC2OC(=O)C(CC(C)C)N(C)CC(C)OC(=O)C(CC(C)C)N(C)C(=O)C(Cc3ccc(NCCOC)cc3)OC(=O)C(CC(C)C)N(C)CC(C)OC(=O)C(CC(C)C)N(C)C2=O)cc1` (stereo not drawn) [Example 16-a, 8,20-bis-(4-β-methoxyethylaminobenzyl)-5,11,17,23-tetraisobutyl-2,4,10,14,16,22-hexamethyl-1,7,13,19-tetraoxa-4,10,16,22-tetraaza-cyclotetracosan-6,9,12,18,21,24-hexaone], the minimal effective dose is less than 1 mg/kg.
As for `CC(C)CC1C(=O)OC(C)CN(C)C(CC(C)C)C(=O)OC(Cc2ccc(N3CCOCC3)cc2)C(=O)N(C)C(CC(C)C)C(=O)OC(C)CN(C)C(CC(C)C)C(=O)OC(Cc2ccc(N3CCOCC3)cc2)CN1C` (centres unmarked) [Example 7-c, 5,11,17,23-tetraisobutyl-2,4,10,14,16,22-hexamethyl-8,20-bis-[4-(N-morpholinyl)benzyl]-1,7,13,19-tetraoxa-4,10,16,22-tetraaza-cyclotetracosan-6,9,12,18,24-pentaone], the minimal effective dose is less than 1 mg/kg.
For `CC(C)C[C@H]1C(=O)O[C@H](Cc2ccc(N3CCOCC3)cc2)C(=O)N(C)[C@@H](CC(C)C)C(=O)O[C@H](C)CN(C)[C@@H](CC(C)C)C(=O)O[C@H](Cc2ccc(N3CCOCC3)cc2)C(=O)N(C)[C@@H](CC(C)C)C(=O)O[C@H](C)CN1C` [Example 5, 5,11,17,23-tetraisobutyl-2,4,10,14,16,22-hexamethyl-8,20-bis-[4-(N-morpholinyl)benzyl]-1,7,13,19-tetraoxa-4,10,16,22-tetraaza-cyclotetracosan-6,9,12,18,21,24-hexaone], the minimal effective dose was less than 1 mg/kg.
